Laboratory results published in US20050107447A1, “Novel lysophosphatidic acid receptor agonists and antagonists” (priority 2003, published 2005).
Where “and” joins values, the source holds several entries; their conditions need not be identical. Equal values may be shown once. Entries after “also recorded” stand apart in the source; their conditions may differ.

Key:
LPA2 = LPA2 (Homo sapiens, UniProt Q9HBW0); assay: GTP[γ35S] binding, LPA2 transfected HEK293T cell membranes; assay type: biochemical; parameters: expressed in transfected cells; host or cells: HEK293T (transient, calcium phosphate); details: for EC50: agonist, GTP[γ35S] binding
Method: (§1) The appropriate receptor plasmid DNA (encoding mouse LPA1, human LPA2 or human LPA3) was mixed with equal amounts of expression plasmids (pcDNA3) encoding a mutated (C351F) rat Gi2a, cow β1, and γ2 proteins and these DNAs were used to transfect monolayers of HEK293T cells (where ‘T’ indicates expression of the SV-40 virus large T antigen) using the calcium phosphate precipitate method. After about 60 hours, cells were harvested, membranes were prepared, aliquoted and stored at −70° C. until use.
(§2) The GTP[35 γS] assay was performed as described by us previously. Membranes containing 5 ug of protein were incubated in 0.1 ml GTP-binding buffer (in mM: HEPES 50, NaCl 100, MgCl2 10, pH7.5) containing […], […], 0.1 nM GTP[35 γS] (1200 Ci/mmol), and indicated lipid(s) for 30 minutes at 30° C. Samples were analyzed for membrane-bound radionuclide using a Brandel Cell Harvester (Gaithersburg, Md.).
(§3) The X-intercept of the linear transformation is equal to the inverse log of the κ1.
(§4) Membranes prepared from these cells are used to measure GTPγ[^35S] binding as a function of test compound concentration. The resulting dose-response curves provide relative potency (EC50) and efficacy, (Emax) for the test compounds.

LPA3 = biological target: T1, LPA3 (Homo sapiens, UniProt Q9UBY5); assay: GTP[γ35S] binding, LPA3 transfected HEK293T cell membranes; assay type: biochemical; parameters: expressed in transfected cells; host or cells: HEK293T (transient, calcium phosphate); details: for EC50: agonist, GTP[γ35S] binding
T1 sequence (Q9UBY5 1-353): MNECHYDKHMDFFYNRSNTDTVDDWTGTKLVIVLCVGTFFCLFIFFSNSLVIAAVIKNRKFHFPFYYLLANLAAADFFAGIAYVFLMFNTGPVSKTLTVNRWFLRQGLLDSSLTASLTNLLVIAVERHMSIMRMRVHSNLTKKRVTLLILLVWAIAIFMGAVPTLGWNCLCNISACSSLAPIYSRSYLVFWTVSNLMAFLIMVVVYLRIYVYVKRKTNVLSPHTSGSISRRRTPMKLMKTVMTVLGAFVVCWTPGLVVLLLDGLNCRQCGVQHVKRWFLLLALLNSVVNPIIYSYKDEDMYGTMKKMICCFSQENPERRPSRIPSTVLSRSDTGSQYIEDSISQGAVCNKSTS
Method: as §1, §2, §3, §4

LPA1 [1] = biological target: T2, LPA1 (Mus musculus, UniProt P61793); assay: GTP[γ35S] binding, LPA1 transfected HEK293T (or RH7777) cell membranes; assay type: biochemical; parameters: expressed in transfected cells; host or cells: HEK293T (transient, with G protein plasmids); some results from RH7777 rat hepatoma membranes transfected with LPA1 DNA only; details: for EC50: agonist, GTP[γ35S] binding; for Potency at LPA1 relative to LPA: vs 1-oleoyl LPA
Method: as §1, §2, §3, §4

human LPA1 = biological target: T3, human LPA1 (Homo sapiens, UniProt Q92633); assay: GTP[γ35S] binding, recombinant baculovirus-infected insect Sf9 cell membrane preparation; assay type: biochemical; details: Sf9 membranes
T3 construct: expressed in transfected cells; host or cells: Sf9 insect cells, recombinant baculovirus
Method: (§5) The same activity was determined with human LPA1 using a recombinant baculovirus-infected insect Sf9 cell membrane preparation.

[2] = tested on: HEK293T cells (express LPA1 and LPA3, not LPA2); assay: Block of LPA-induced rises in free intracellular calcium in HEK293T cells (FLIPR); assay type: cell-based; details: specificity control
Source text: as §3

LPA receptors = assay: Whole cell assays of calcium mobilization or inhibition of cAMP accumulation (agonist activity); assay type: cell-based
Method: (§6) Assays for cAMP accumulation were conducted on populations of 5×10^5 cells stimulated with […] in the presence of the phosphodiesterase inhibitor isomethylbutylxanthine (IBMX) for 15 minutes at 30° C. cAMP was measured by automated radioimmunoassay.
A FLIPR™ (Molecular Devices, Inc.) was used to measure intracellular calcium in A431 and HEK293T cells. A431 cells were seeded (−50,000 cells/well) in 96-well clear bottom black microplates (Corning Costar Corp., Cambridge, Mass.) and left overnight in CO2 incubator at 37° C. HEK293T cells were treated likewise, but seeded onto poly D-lysine coated microplates (Becton Dickinson, Franklin Lakes, N.J.). A431 cells were dye-loaded with 4 μM Fluo-3 AM ester (Molecular Probes Inc., Eugene, Oreg.) in a loading buffer (1×HBSS buffer, pH 7.4, containing 20 mM HEPES, 0.1% BSA, and 2.5 mM probenecid) for 1 hour at 37° C. Cells were then washed four times with the loading buffer and exposed in the FLIPR™ to sets of compounds. HEK293T cells were loaded with 2 μM Fluo-4 AM ester (Molecular Probes Inc., Eugene, Oreg.) in the same loading buffer without probenecid for 30 minutes and washed four times before being exposed to compounds in the FLIPR™. […]
as §5

[3] = tested on: renal injury following ischemia-reperfusion (IR); assay: Renal ischemia-reperfusion model; assay type: in vivo, mouse; details: for Plasma creatinine: 24 hrs of reperfusion, n=4
Method: C57BL6 mice (20 gm, 8 wks of age) were used for all studies. The surgical protocol of renal IR has been previously described (Okusa et al., 1999. Am. J. Physiol. (Renal Physiol.) 277: F404-412; Okusa, et al., 2000 Am. J. Physiol. (Renal Physiol.) 279; F809-F818, and Okusa et al., 2001 Kidney Int. 59:2114-2125). For the injury protocol, bilateral flank incisions were made under anesthesia with a regimen that consists of ketamine (100 mg/kg, ip.), xylazine (10 mg/kg, ip.) and acepromazine (1 mg/kg, im.). Renal pedicles were exposed and cross-clamped for 27-32 min. Kidneys were examined for immediate reperfusion following clamp removal. Wounds were closed and mice were returned to cages. […] The mice were sacrificed and the kidneys harvested at 1, 4, 8, 24, 48 hrs, 5 and 7 days. […] Mice were sacrificed following 24 hrs of reperfusion and plasma was obtained for BUN and creatinine.

LPA1 [4] = biological target: T2, LPA1; assay: cAMP accumulation in RH7777 cells stably expressing LPA1; assay type: cell-based; parameters: expressed in transfected cells; details: RH7777 cells stably expressing LPA1
Method: as §6
Rat hepatoma RH7777 cell monolayers were transfected with the mLPA1 plasmid DNA using the calcium phosphate precipitate method and clonal populations expressing the neomycin phosphotransferase gene were selected by addition of geneticin (G418) to the culture media. The RH7777 cells were grown in monolayers at 37° C. in a 5% CO02/95% air atmosphere in growth media consisting of: 90% MEM, 10% fetal bovine serum, 2 mM glutamine and 1 mM sodium pyruvate.
wls-b8L and the other phosphonates were also tested also for activity in three whole cell assays. […] Finally, the activity of wls-b8L in activating a chloride conductance in Xenopus laevis ooctyes was measured.

Chain of LPA2 (Q9HBW0 whole entry): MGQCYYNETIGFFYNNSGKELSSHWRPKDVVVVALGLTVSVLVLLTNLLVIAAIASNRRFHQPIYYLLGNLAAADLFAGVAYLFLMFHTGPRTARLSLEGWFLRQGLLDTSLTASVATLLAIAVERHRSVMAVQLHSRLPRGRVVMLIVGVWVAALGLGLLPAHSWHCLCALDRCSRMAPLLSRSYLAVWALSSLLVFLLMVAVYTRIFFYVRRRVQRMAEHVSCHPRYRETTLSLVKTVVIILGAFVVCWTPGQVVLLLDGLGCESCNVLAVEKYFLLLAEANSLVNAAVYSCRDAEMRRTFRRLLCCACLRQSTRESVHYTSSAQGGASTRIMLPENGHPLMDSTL
T2 sequence (P61793 whole entry): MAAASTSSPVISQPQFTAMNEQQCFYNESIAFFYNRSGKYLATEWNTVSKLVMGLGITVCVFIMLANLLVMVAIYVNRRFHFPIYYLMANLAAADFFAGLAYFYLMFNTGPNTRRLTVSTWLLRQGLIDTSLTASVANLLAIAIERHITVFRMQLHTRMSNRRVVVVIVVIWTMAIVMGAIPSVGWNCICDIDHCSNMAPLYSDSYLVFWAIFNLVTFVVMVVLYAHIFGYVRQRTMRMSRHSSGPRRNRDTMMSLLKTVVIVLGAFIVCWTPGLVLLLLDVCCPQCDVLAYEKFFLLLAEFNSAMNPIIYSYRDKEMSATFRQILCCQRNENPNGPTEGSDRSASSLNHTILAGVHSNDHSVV
T3 sequence (Q92633 whole entry): as the sequence (P61793 whole entry) above, with A4I, S8I, Q22P, Y40H, V61I, D193E, H194N, V269I, N331S, N335T counted along it

Compound | Emax (LPA2) | EC50 (LPA2) | EC50 (LPA3) | Emax (LPA1 [1]) | EC50 (LPA1 [1]) | Emax (LPA3) | also measured
CCCCCCCC/C=C\CCCCCCCC(=O)N[C@@H](CO)COP(=O)(O)O [VPC31144] | 77.3% | 2640 nM | 4350 nM | 91.1% | > 5000 nM | – | –
CCCCCCCC/C=C\CCCCCCCC(=O)N[C@H](COP(=O)(O)O)Cc1ccc(OCc2ccccc2)cc1 [VPC12249] | – | – | – | – | – | – | Antagonist activity at human LPA1 (human LPA1): same activity; Antagonism of ATP-evoked calcium transients [2]: lack of antagonism; Agonist activity in whole cell assays (LPA receptors): completely devoid of agonist activity; Plasma creatinine ([3]; 0.01 mg/kg/2 hrs): 1.06±0.25; H and E sections, tissue preservation ([3]; 1 mg/kg/2 hr): marked degree of tissue preservation; Plasma creatinine ([3]; 1.0 mg/kg/2 hrs): 0.31±0.4; Block of LPA1-mediated inhibition of forskolin-induced cAMP increase (LPA1 [4]): inhibited; Antagonism of LPA-induced GTP[γ35S] binding at LPA2 (LPA2): lack of antagonist activity; Antagonism of LPA-induced GTP[γ35S] binding at LPA3 (LPA3): surmountable antagonist; Ki (LPA3; Schild regression, block of LPA-induced GTP[γ35S] binding): 428 nM and ~425 nM
CCCCCCCC/C=C\CCCCCCCC(=O)N[C@@H](COP(=O)(O)O)C(C)C [VPC12098] | 85.8% | 799 nM | 3810 nM | 51% | 73.8 nM | 45.3% | –
CCCCCCCC/C=C\CCCCCCCC(=O)N[C@@H](C)COP(=O)(O)O [VPC12101] | 6.9% | > 5000 nM | > 5000 nM | 48.1% | 2900 nM | 9.7% | –
CCCCCCCC/C=C\CCCCCCCC(=O)N[C@H](CO)COP(=O)(O)O [VPC31143] | 105% | 116 nM | 322 nM | 161% | 7.9 nM | 107% | Potency at LPA1 relative to LPA (LPA1 [1]): more potent than 1-oleoyl LPA
CCCCCCCC/C=C\CCCCCCCC(=O)N[C@@H](CN)COP(=O)(O)O [VPC12048] | 36.4% | > 5000 nM | > 5000 nM | 9.4% | > 5000 nM | 3.8% | –
CCCCCCCC/C=C\CCCCCCCC(=O)N[C@H](CC)COP(=O)(O)O [VPC12109] | 92.6% | 162 nM | 1080 nM | 66.8% | 35.8 nM | 83.5% | –
CCCCCCCC/C=C\CCCCCCCC(=O)N[C@H](CN)COP(=O)(O)O [VPC12178] | 103% | 50.3 nM | 684 nM | 98.7% | 4.9 nM | 103% | Potency at LPA1 relative to LPA (LPA1 [1]): more potent than 1-oleoyl LPA
CCCCCCCC/C=C\CCCCCCCC(=O)N[C@@H](COP(=O)(O)O)Cc1ccc(OCc2ccc(CCCCC)cc2)cc1 [VPC31162] | – | – | – | – | – | – | Antagonism of LPA-induced GTP[γ35S] binding at LPA2 (LPA2): antagonist activity; Agonist activity/efficacy at LPA3 (LPA3; compared to LPA): agonist; Agonist activity/efficacy at LPA1 (LPA1 [1]; compared to LPA): agonist
CCCCCCCC/C=C\CCCCCCCC(=O)N[C@H](COP(=O)(O)O)C(C)C [compound 40105] | 27.6% | > 5000 nM | > 5000 nM | 14.8% | > 5000 nM | 27.7% | –
1-acyl, 2-hydroxyl-sn-glycerol-3-phosphate [LPA, reference compound] | – | 6.8 nM | 262 nM | – | – | – | LPA3 Emax (LPA3; LPA = 100): 100
CCCCCCCC/C=C\CCCCCCCC(=O)N[C@H](C)COP(=O)(O)O [VPC12086] | 95.2% | 18.3 nM | 113 nM | 108% | 3.4 nM | 93.4% | Potency at LPA1 relative to LPA (LPA1 [1]): more potent than 1-oleoyl LPA; also recorded: more potent and efficacious than LPA
CCCCCCCC/C=C\CCCCCCCC(=O)N[C@@H](COP(=O)(O)O)C(=O)OC [VPC31139] | 91.3% | 29.2 nM | 1480 nM | 66.2% | 18.5 nM | 84.4% | –
CCCCCCCC/C=C\CCCCCCCC(=O)N[C@@H](COP(=O)(O)O)Cc1ccccc1 [VPC12084] | 97% | 268 nM | 351 nM | 23.7% | 38.4 nM | 78.7% | Agonist activity in whole cell assays (LPA receptors): appreciable agonist activity; Antagonism of LPA-induced GTP[γ35S] binding at LPA1 (LPA1 [1]): did block LPA activity
CCCCCCCC/C=C\CCCCCCCC(=O)N[C@@H](CC)COP(=O)(O)O [VPC12115] | 85.6% | 4280 nM | 4980 nM | 62.3% | 1580 nM | 89.3% | –
CCCCCCCC/C=C\CCCCCCCC(=O)N[C@H](COP(=O)(O)O)C(=O)OC [VPC31180] | 60.2% | 3460 nM | > 5000 nM | 50.6% | 1210 nM | 3.8% | –
CCCCCCCC/C=C\CCCCCCCC(=O)N[C@H](COP(=O)(O)O)Cc1ccccc1 [VPC12255] | – | > 5000 nM | > 5000 nM | – | > 5000 nM | – | –
